Assay results from the NIST ThermoML archive (doi:10.1016/j.jct.2004.12.006).
Numbers after ± are expanded uncertainties.

How the values were obtained:
[1] = Crystal; DTA
[2] = Molar enthalpy of transition or fusion; conditions: Crystal; DSC

- Normal melting temperature [1]: 126.7 ± 0.7 °C
- Molar enthalpy of transition or fusion [2]: 8.12 ± 0.167 kcal/mol
SMILES: Cl.Cl.Fc1ccc([C@@H]2CCNC[C@H]2COc2ccc3c(c2)OCO3)cc1.Fc1ccc([C@@H]2CCNC[C@H]2COc2ccc3c(c2)OCO3)cc1.O [paroxetine hydrochloride hemihydrate]
